Where a name gives a salt, the structure may show the parent alone.
Tests used:
[1] = biological target: T1, GKRP (Glucokinase Regulatory Protein) with human His-hepatic GK (Homo sapiens, UniProt Q14397); assay: GKRP NADPH Coupled Assay; type: biochemical; details: GK-GKRP EC50 (NADPH-coupled), indirect measure of glucose-6-phosphate, fluorescence; 1 μM GKRP (10×), 20 nM GK (5×)
T1 sequence (Q14397 1-625): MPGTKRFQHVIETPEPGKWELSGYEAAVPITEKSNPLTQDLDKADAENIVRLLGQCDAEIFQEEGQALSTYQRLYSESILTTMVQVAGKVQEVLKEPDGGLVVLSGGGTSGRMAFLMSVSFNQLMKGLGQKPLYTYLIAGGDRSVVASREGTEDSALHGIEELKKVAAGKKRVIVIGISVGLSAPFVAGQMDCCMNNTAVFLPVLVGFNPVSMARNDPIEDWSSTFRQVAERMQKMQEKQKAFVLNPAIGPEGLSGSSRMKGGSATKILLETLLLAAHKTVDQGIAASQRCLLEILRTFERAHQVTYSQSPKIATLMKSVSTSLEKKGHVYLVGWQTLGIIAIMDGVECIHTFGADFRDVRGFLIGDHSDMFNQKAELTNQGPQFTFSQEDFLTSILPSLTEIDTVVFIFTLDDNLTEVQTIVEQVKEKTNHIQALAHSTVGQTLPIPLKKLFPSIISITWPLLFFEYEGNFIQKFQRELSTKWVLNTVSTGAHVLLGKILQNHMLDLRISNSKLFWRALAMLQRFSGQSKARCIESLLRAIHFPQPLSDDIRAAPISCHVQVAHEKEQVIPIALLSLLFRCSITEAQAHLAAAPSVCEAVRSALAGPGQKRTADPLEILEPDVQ
Experimental: (§1) This assay is used to directly measure the formation of ^13C-glucose-6-phosphate from ^13C-glucose by liquid chromatography-mass spectrometry (LC MS/MS). Begin by preparing the following solutions: Compound Buffer (CB): 50 mM Tris, pH 7.5/4 mM MgCl2/6% DMSO/fresh 10 mM DTT from 1M frozen stock. Enzyme Buffer (EB): 50 mM Tris, pH 7.5/4 mM MgCl2/6% DMSO/fresh 0.1% BSA/fresh 0.01% Brij-35 (10% BSA and 1% Brij-35 stock). GK (Glucokinase) Working Stock (5×): Dilute human His-hepatic GK to 30 nM in EB buffer. […] After 30 minutes add 10 μl of GK Working Stock (5×). Re-seal the plate and incubate for another 30 minutes at room temperature while mixing. After the second 30 minutes, stop the reaction by the addition of 50 μl of 100% acetonitrile, seal, and mix for 5-10 minutes. Run 10 μl of this sample through the LC MS/MS (API 3200, Applied Biosystems Inc., Carlsbad, Calif.).
This assay is used as an indirect measure of glucose-6-phosphate (G6P) formed from glucose due to the enzymatic activity of glucokinase. Assay format is the same as for GKRP LC MS/MS Biochemical Assay with the following exceptions. GK Working Stock (5×): Dilute human His-hepatic GK to 20 nM in EB buffer. Stop & Detection Reagent (2×): Dilute β-nicotinamide adenine dinucleotide phosphate sodium salt (β-NADP) (Aldrich-Sigma, St. Louis, Mo.) to 2 mM from 100 mM stock (stock in 10 mM Tris, pH 9.2) and dilute glucose-6-phosphate dehydrogenase (Aldrich-Sigma, St. Louis, Mo.) to 0.04 Unit/μl from 10 Unit/μl (stock in 10 mM Tris pH 7.5/0.05% Brij-35) in 0.2 M Tris, pH 9.2/8% DMSO. After the initial 30 minute incubation add 10 μl of 20 nM GK diluted in EB (5×). Re-seal the plate and incubate for another 1 hour at room temperature while mixing. After 1 hour remove the seal and add 50 μl of Stop & Detection Reagent and incubate for 5 minutes at room temperature while mixing.

[2] = biological target: T1, GKRP (Glucokinase Regulatory Protein) with human His-hepatic GK; assay: GKRP LC MS/MS Biochemical Assay; details: 13C-glucose-6-phosphate formation, 1 μM GKRP (10×), 30 nM GK (5×)
Experimental: GKRP LC MS/MS Biochemical Assay
as §1

[3] = biological target: T1, GKRP (Glucokinase Regulatory Protein) with human His-hepatic GK; assay: biochemical; details: 13C-glucose-6-phosphate formation; 280 nM GKRP (10×), 30 nM GK (5×); read-out: GK-GKRP EC50 (LC MS/MS-2)
Outline: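 Product formation, 13C-glucose-6-phosphate from 13C-glucose, was measured directly by LC MS/MS after acetonitrile quench. The GK reaction ran 30 min at room temperature in Tris pH 7.5 buffer with 4 mM MgCl2 and 6% DMSO. The 5× enzyme stock was 30 nM His-tagged human hepatic glucokinase.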

[4] = biological target: T2, interaction between glucokinase (GK) and glucokinase regulatory protein (GKRP) (Homo sapiens, UniProt Q14397); assay: biochemical; type: binding; details: avi-tagged GKRP, GK-fluorescein, AlphaScreen beads; read-out: GK-GKRP IC50 (Binding)
T2 sequence (Q14397 1-625): T1 sequence (Q14397 1-625)
Outline: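 Measures direct GK–GKRP binding in 20 mM Tris pH 7.5 containing 1 μM sorbitol-6-phosphate, 0.05% BSA and 1 mM DTT. Compound and avi-tagged GKRP sit 20 min at room temperature before GK-fluorescein addition (6 nM in the added buffer); read after 2 h dark incubation at room temperature.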

[5] = read-out: GK-GKRP EC50 (LC MS/MS)

Compound	EC50 [1] [µM]	EC50 [3] [µM]	other results
CC(O)(c1ccc(N2CCN(S(=O)(=O)c3cccs3)CC2CN2CC[C@@H](O)C2)cc1)C(F)(F)F (mixture of isomers) [Example 56, (3R)-1-((4-(2-thiophenylsulfonyl)-1-(4-(2,2,2-trifluoro-1-hydroxy-1-methylethyl)phenyl)-2-piperazinyl)methyl)-3-pyrrolidinol]	3.5		
C[C@H]1CN(S(=O)(=O)c2cccs2)CCN1c1ccc(C(O)(CO)C(F)(F)F)cc1 (mixture of isomers) [Example 67, 2-(4-((2S)-2-methyl-4-(2-thiophenylsulfonyl)-1-piperazinyl)phenyl)-3,3,3-trifluoro-1,2-propanediol]			EC50 [2, 5]: 0.67 µM
CC(O)(c1ccc(N2CCN(S(=O)(=O)c3nccs3)CC2)cc1)C(F)(F)F (racemic) [Example 32, 1,1,1-trifluoro-2-(4-(4-(1,3-thiazol-2-ylsulfonyl)-1-piperazinyl)phenyl)-2-propanol trifluoroacetate]			EC50 ([2]; GK-GKRP EC50 (LC MS/MS)): 4.75 µM
CC(O)(c1ccc(N2CCN(S(=O)(=O)c3cccs3)C[C@@H]2Cn2ccnc2)cc1)C(F)(F)F (mixture of isomers) [Example 170, 2-(4-((S)-2-((1H-imidazol-1-yl)methyl)-4-(thiophen-2-ylsulfonyl)piperazin-1-yl)phenyl)-1,1,1-trifluoro-2-propanol]	0.762	0.942	
CC(O)(c1ccc(N2CCN(S(=O)(=O)c3cccs3)C[C@@H]2Cn2ccc3nccnc32)cc1)C(F)(F)F (mixture of isomers) [Example 171, 2-(4-((S)-2-((5H-pyrrolo[2,3-b]pyrazin-5-yl)methyl)-4-(thiophen-2-ylsulfonyl)piperazin-1-yl)phenyl)-1,1,1-trifluoro-2-propanol]	0.649	0.801	
CC(O)(c1ccc(N2CCN(S(=O)(=O)c3cccs3)C[C@@H]2Cn2ccc3cccnc32)cc1)C(F)(F)F (mixture of isomers) [Example 172, 2-(4-((S)-2-((1H-pyrrolo[2,3-b]pyridin-1-yl)methyl)-4-(thiophen-2-ylsulfonyl)piperazin-1-yl)phenyl)-1,1,1-trifluoro-2-propanol]	0.253	0.249	
O=S(=O)(c1cccs1)N1CCN(c2ccc(C(O)(C(F)(F)F)C(F)(F)F)cc2)C(Cc2cccc(O)c2)C1 (racemic) [Example 176, 3-((1-(4-(1,1,1,3,3,3-hexafluoro-2-hydroxypropan-2-yl)phenyl)-4-(thiophen-2-ylsulfonyl)piperazin-2-yl)methyl)phenol]	1.81		
CC(O)(c1ccc(N2CCN(S(=O)(=O)c3ccccc3)CC2)cc1)C(F)(F)F (single isomer, unassigned) [Example 24 Peak #2, 1,1,1-trifluoro-2-(4-(4-(phenylsulfonyl)-1-piperazinyl)phenyl)-2-propanol]			EC50 ([2]; GK-GKRP EC50 (LC MS/MS)): 3.01 µM
C[C@H]1CN(S(=O)(=O)c2nccs2)CCN1c1ccc(C(C)(O)C(F)(F)F)cc1 (single isomer, unassigned) [Example 34 Peak #1]	2.5		
CC(O)(c1ccc(N2CCN(S(=O)(=O)c3cccs3)CC2CC2CCOCC2)cc1)C(F)(F)F (single isomer, unassigned) [Example 37 Peak #3, 1,1,1-trifluoro-2-(4-(2-(tetrahydro-2H-pyran-4-ylmethyl)-4-(2-thiophenylsulfonyl)-1-piperazinyl)phenyl)-2-propanol]	13		
CC(O)(c1ccc(N2CCN(S(=O)(=O)c3cccs3)CC2CC2CCOCC2)cc1)C(F)(F)F (single isomer, unassigned) [Example 37 Peak #4, 1,1,1-trifluoro-2-(4-(2-(tetrahydro-2H-pyran-4-ylmethyl)-4-(2-thiophenylsulfonyl)-1-piperazinyl)phenyl)-2-propanol]	> 50		
C[C@H]1COCCN1CC1CN(S(=O)(=O)c2cccs2)CCN1c1ccc(C(C)(O)C(F)(F)F)cc1 (single isomer, unassigned) [Example 45 Peak #3]	15.1		
O=S(=O)(c1cccs1)N1CCN(c2ccc(C(O)(CO)C(F)(F)F)cc2)CC1 (single isomer, unassigned) [Example 66 Peak #1, 3,3,3-trifluoro-2-(4-(4-(2-thiophenylsulfonyl)-1-piperazinyl)phenyl)-1,2-propanediol]			EC50 [2, 5]: 4.43 µM
O=S(=O)(c1cccs1)N1CCN(c2ccc(C(O)(C(F)(F)F)C(F)(F)F)cc2)C[C@H]1C1CC1 [Example 14, 2-(4-((3R)-3-cyclopropyl-4-(2-thiophenylsulfonyl)-1-piperazinyl)phenyl)-1,1,1,3,3,3-hexafluoro-2-propanol]	5		
C[C@H]1CN(S(=O)(=O)c2ccoc2)CCN1c1ccc(C(C)(O)C(F)(F)F)cc1 (stereo partly drawn) [Example 30, 1,1,1-trifluoro-2-(4-((2S)-4-(3-furanylsulfonyl)-2-methyl-1-piperazinyl)phenyl)-2-propanol]	3.12		
C[C@H]1COCCN1C[C@H]1CN(S(=O)(=O)c2ccc(N)nc2)CCN1c1ccc(C(O)(C(F)(F)F)C(F)(F)F)cc1 [Example 124, 2-(4-((2S)-4-((6-amino-3-pyridinyl)sulfonyl)-2-(((3S)-3-methyl-4-morpholinyl)methyl)-1-piperazinyl)phenyl)-1,1,1,3,3,3-hexafluoro-2-propanol]	0.001	0.018	
CC(C)N(C[C@H]1CN(S(=O)(=O)c2ccc(N)nc2)CCN1c1ncc(C(O)(C(F)(F)F)C(F)(F)F)cn1)S(C)(=O)=O [Example 232, N-(((2R)-4-((6-amino-3-pyridinyl)sulfonyl)-1-(5-(2,2,2-trifluoro-1-hydroxy-1-(trifluoromethyl)ethyl)-2-pyrimidinyl)-2-piperazinyl)methyl)-N-(1-methylethyl)methanesulfonamide]		0.063	IC50 [4]: 0.035 µM
CS(=O)(=O)N(C[C@H]1CN(S(=O)(=O)c2ccc(N)s2)CCN1c1ncc(C(O)(C(F)(F)F)C(F)(F)F)cn1)c1ccccc1 [Example 233, N-(((2R)-4-((5-amino-2-thiophenyl)sulfonyl)-1-(5-(2,2,2-trifluoro-1-hydroxy-1-(trifluoromethyl)ethyl)-2-pyrimidinyl)-2-piperazinyl)methyl)-N-phenylmethanesulfonamide]		0.008	IC50 [4]: < 0.001 µM
CS(=O)(=O)N(C[C@H]1CN(S(=O)(=O)c2ccc(N)nc2)CCN1c1ncc(C(O)(C(F)(F)F)C(F)(F)F)cn1)c1ccccc1 [Example 234, N-(((2R)-4-((6-amino-3-pyridinyl)sulfonyl)-1-(5-(2,2,2-trifluoro-1-hydroxy-1-(trifluoromethyl)ethyl)-2-pyrimidinyl)-2-piperazinyl)methyl)-N-phenylmethanesulfonamide]		0.017	IC50 [4]: 0.004 µM
